Reference: patent US20250170154A1 (GreenStone Biosciences, Inc., priority 2023, published 2025)

How the values were obtained:
[1] = system: mice with DSS-induced colitis; test: DSS-induced colitis in mice; format: in vivo, mouse; settings: 50 mg/Kg daily by gavage
Procedure: Mice, placed on a soy-free diet for 14 days, were administered 3.5% DSS in their drinking water for 8 days to induce colitis, and either untreated or treated with compound 2 at 50 mg/Kg daily by gavage from day 1 (prevention) or from day 5 (intervention); and monitored for clinical indicators of colitis, including stool consistency, rectal bleeding, and changes in body weight. […] The genistein phosphate derivatives of this invention are therefore expected to be useful for the treatment of subjects with inflammatory bowel disease, ulcerative colitis, and Crohn's disease.

[2] = system: patients with moderate to severe rheumatoid arthritis; test: Randomized, double-blind, placebo-controlled study in rheumatoid arthritis; format: in vivo, human; settings: oral 500 mg capsule once daily for 24 weeks; expected
Procedure: Approximately 120 patients, ages 30-65, diagnosed with rheumatoid arthritis according to the 2010 ACR/EULAR classification criteria, are enrolled in a randomized, double-blind, placebo-controlled study to evaluate the efficacy of compound 2 in patients with moderate to severe rheumatoid arthritis. Participants are randomized to receive either oral compound 2 (500 mg capsule) or placebo once daily for a period of 24 weeks. The primary efficacy endpoint is the improvement in the Disease Activity Score-28 (DAS28) with C-reactive protein (CRP) at week 24. A clinically meaningful reduction in DAS28 score is defined as a reduction of ≥1.2 points from baseline. Secondary endpoints include: Improvement in physical function as measured by the Health Assessment Questionnaire Disability Index (HAQ-DI), reduction in morning stiffness and joint pain, and changes in levels of inflammatory cytokines such as TNF-α, IL-6, and IL-1β. […] Additionally, compound 2 is expected to reduce serum levels of pro-inflammatory cytokines and markers of joint damage such as matrix metalloproteinases (MMPs), thus providing evidence of its disease-modifying effects.

[3] = system: mice with cerulein-induced chronic pancreatitis; test: Cerulein model of chronic pancreatitis (CP); format: in vivo, mouse; settings: 100 mg/Kg daily on the last 4 weeks
Procedure: Using the cerulein model, acute edematous pancreatitis was induced in two test groups of mice by eight hourly intraperitoneal injections of 50 μg/Kg cerulein, with control group mice receiving injections of physiological saline. Compound 2, at 100 mg/Kg, was administered to one of the cerulein groups by gavage 30 minutes after the first and fourth cerulein injections. Mice were sacrificed one hour after the last injection and tissues were collected for histological analysis. […] Recurrent acute pancreatitis (RAP) and chronic pancreatitis (CP) were induced by repetitive cerulein injections every third day over a span of 14 days (RAP) or 6 weeks (CP). Compound 2 was administered daily at 50 mg/Kg on the last 10 consecutive days for RAP and at 100 mg/Kg on the last 4 weeks for CP, with vehicle controls. Mice were sacrificed 1 day after the last cerulein injection and tissues were collected for histological analysis. In the CP model, the cerulein injections induced extensive acinar cell damage.

Dp16 mice = test: Dp16 mouse model of Down syndrome challenged with poly(I:C); format: in vivo
Text: Waugh et al., “Triplication of the interferon receptor locus contributes to hallmarks of Down syndrome in a mouse model”, Nat. Genet., 55, 1034-1047 (2023), note that the B6.129S7-Dp(16Lipi-Zbtb21)1Yey/J mouse model of DS, sometimes referred to as the Dp16 mouse, carries a segmental duplication of mouse chromosome 16 causing triplication of ˜120 protein-coding genes orthologous to those on human chromosome 21, including the Ifnr cluster; and that Dp16 mice display key phenotypes of DS including hyperactive IFN signaling, a dysregulated antiviral response, increased prevalence of heart defects, developmental delays, cognitive impairments and craniofacial anomalies. The TLR3 agonist polyinosinic-polycytidylic acid, poly(I:C), is an innate immune stimulus known to trigger an IFN response. Three groups of Dp16 mice were dosed from day ˜7 through 10 by gavage at 10 mg/Kg, twice/day for the first 5 days and once/day thereafter, with vehicle (2 groups) or compound 2 in vehicle (1 group), and one of the vehicle groups and the compound 2 group were dosed by injection with poly(I:C) on day 7, while the other vehicle group was given a sham injection. Treatment with compound 2 ameliorated the increased expressions of cytokines, IFNα and […], TNF-α, IL-2, -5, -6, -10, and -12P70, and attenuated the inflammatory response, including ameliorating the skin thickening, induced by Poly(I:C) in these Dp16 mice. Transcriptome analysis of liver samples identified gene sets substantially dysregulated in the Dp16 mice and attenuated by treatment with compound 2; including signatures of increased cell proliferation (E2F targets and G2/M checkpoint), increased JAK/STAT and interferon signaling, and decreased fatty acid metabolism. The genistein phosphate derivatives of this invention are therefore expected to be useful for the treatment of subjects with Down syndrome.

[4] = system: chondrocyte pellets differentiated from human mesenchymal stem cells (MSCs); test: Mini-joint model, IL-1β inflamed chondrocyte pellets, PCR analysis; format: cell-based; settings: up to 5 μM with 0.01 ng/mL IL-1β for 3 days
Procedure: In the mini-joint model, human mesenchymal stem cells (MSCs) were differentiated into chondrocytes in pellet culture over a period of 3 weeks. The chondrocyte pellets were then maintained in a medium containing 0.5 ng/mL of TGF-β for 1 week. Inflammation was induced by treating the pellets with 1 ng/mL of IL-1β for 1 day. Following this, the pellets were treated with compound 2 at up to 5 μM together with 0.01 ng/mL of IL-1β to sustain the inflammatory environment for 3 days. At the conclusion of the treatment, the pellets were collected for PCR analysis.

LMNA^H222P/H222P mouse = test: Dilated cardiomyopathy model, echocardiography; format: in vivo; settings: continuous 4 weeks by osmotic pumps
Procedure: The LMNA^H222P/H222P mouse is a well-established model for studying dilated cardiomyopathy and heart failure, with cardiac dysfunction typically beginning to manifest at around 16 weeks of age. In this study, 16-week-old LMNA^H222P/H222P mice underwent baseline echocardiography prior to treatment. Compound 2 was then administered continuously for 4 weeks using osmotic pumps, with DMSO as the vehicle control. At the end of the treatment period, echocardiography was performed again to assess the impact of compound 2 on cardiac function compared to the control group. […] In a FLNC knockout model using the Myh6-Cre:FLNC^wt/F mouse, 16-week-old mice underwent baseline echocardiography, were treated with compound 2 at 50 mg/Kg/day or vehicle by gavage for 6 weeks, and underwent echocardiography to assess the change in cardiac function. […] The genistein phosphate derivatives of this invention are therefore expected to be useful for the treatment of subjects with dilated cardiomyopathy.

[5] = both prevention and intervention modes
[6] = increases seen in control group

O=c1c(-c2ccc(O)cc2)coc2cc(OCOP(=O)(O)O)cc(O)c12 [Compound 2, ((5-Hydroxy-3-(4-hydroxyphenyl)-4-oxo-4H-chromen-7-yl)oxy)methyl dihydrogen phosphate]
weight loss ([1]; both prevention (from day 1) and intervention (from day 5) modes, 3.5% DSS): reduced | colon length [1, 5]: improved | diarrhea [1, 5]: reduced | histology of the colon [1, 5]: histological improvement | rectal bleeding [1, 5]: reduced | serum levels of pro-inflammatory cytokines [2]: reduce | overall outcome over untreated mice (histology) [3]: marked improvement | acinar cell death ([3]; vs untreated group): significant reduction | acinar cell density ([3]; vs untreated group): increase | inflammatory response induced by Poly(I:C) (Dp16 mice; 10 mg/Kg by gavage): attenuated | skin thickening induced by Poly(I:C) (Dp16 mice; 10 mg/Kg by gavage): ameliorating | increased expressions of cytokines, IFNα and […], TNF-α, IL-2, -5, -6, -10, and -12P70 (Dp16 mice; 10 mg/Kg by gavage, twice/day first 5 days then once/day, poly(I:C) injection): ameliorated | dysregulated liver gene sets (cell proliferation, JAK/STAT and interferon signaling, fatty acid metabolism) (Dp16 mice; transcriptome analysis of liver samples): attenuated | COL2 expression [4]: increasing | MMP12 expression [4]: decreasing | TNF-α expression [4]: decreasing | chondrogenesis (expression of collagen A) [4]: promote | ejection fraction (LMNA^H222P/H222P mouse; vs DMSO control group): reduced the decrease | fractional shortening (LMNA^H222P/H222P mouse; vs DMSO control group): reduced the decrease | left ventricular diameter (LMNA^H222P/H222P mouse; [6]): reduced | left ventricular volume (LMNA^H222P/H222P mouse; [6]): reduced
